Assay results: patent publication US9688642B2, “Substituted pyrazines as GPR40 agonists” (Janssen Pharmaceutica NV, priority 2014, dated 2017)
Where “and” joins values, the source holds several entries; their conditions need not be identical. Equal entries are not always repeated.

Tests used:
human GPR40 = human GPR40 (Homo sapiens (Human), UniProt O14842); test: GPR40 calcium flux assay, HEK293 cells stably expressing human GPR40; type: cell-based; details: transfected HEK293 cells stably expressing human GPR40; individual determinations listed; read-out: hGPR40 Ca2+ Assay EC50
Experimental: (§1) Compounds were tested in a calcium flux assay using transfected HEK293 cells stably expressing either human GPR40 or rat GPR40. Human GPR40 expressing cells were cultured in DMEM-High Glucose media supplemented with 10% fetal bovine serum, 1×L-Glutamine, 1× Penicillin/Streptomycin and 500 μg/mL G418. Rat GPR40 expressing cells were cultured in DMEM-High Glucose media supplemented with 10% fetal bovine serum and 1 μg/mL puromycin. Cells were plated into poly-D-lysine coated 384-well plates and cultured overnight in a 37° C. humidified tissue culture incubator under 5% CO2/90% O2 atmosphere. On the day of the experiment, the culture media was replaced with assay buffer (HBSS, 20 mM HEPES, 0.1% BSA) and the cells incubated at 37° C. for 1 h. Calcium-sensitive fluorescent dye (Fluo 8 No-Wash Calcium Dye, ABD Bioquest) was then added and the cells incubated for another 30 min at 37° C. followed by 15 min at room temperature while protected from the light. The cell plate and a plate of diluted compounds of Formula (I) were loaded into a fluorescent plate reader that added compounds onto the cells while measuring the fluorescence intensity of each well. The plate reader recorded fluorescence intensity at 1 second intervals for 8 min and provided the data for analysis in an Excel format. EC50 values were calculated using Prism (GraphPad) software.

rat GPR40 = rat GPR40 (Rattus norvegicus (Rat), UniProt Q8K3T4); test: GPR40 calcium flux assay, HEK293 cells stably expressing rat GPR40; type: cell-based; details: transfected HEK293 cells stably expressing rat GPR40; individual determinations listed; read-out: rGPR40 Ca2+ Assay EC50
Experimental: as §1

Sequence of rat GPR40 (Q8K3T4 whole entry): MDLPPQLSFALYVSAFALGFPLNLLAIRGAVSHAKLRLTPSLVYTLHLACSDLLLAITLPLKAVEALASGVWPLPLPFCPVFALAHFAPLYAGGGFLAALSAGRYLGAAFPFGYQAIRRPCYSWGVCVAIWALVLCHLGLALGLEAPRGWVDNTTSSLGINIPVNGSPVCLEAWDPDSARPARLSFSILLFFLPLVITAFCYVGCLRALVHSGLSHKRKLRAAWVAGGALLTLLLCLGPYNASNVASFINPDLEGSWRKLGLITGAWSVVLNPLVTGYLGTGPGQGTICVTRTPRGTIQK
Sequence of human GPR40 (O14842 whole entry): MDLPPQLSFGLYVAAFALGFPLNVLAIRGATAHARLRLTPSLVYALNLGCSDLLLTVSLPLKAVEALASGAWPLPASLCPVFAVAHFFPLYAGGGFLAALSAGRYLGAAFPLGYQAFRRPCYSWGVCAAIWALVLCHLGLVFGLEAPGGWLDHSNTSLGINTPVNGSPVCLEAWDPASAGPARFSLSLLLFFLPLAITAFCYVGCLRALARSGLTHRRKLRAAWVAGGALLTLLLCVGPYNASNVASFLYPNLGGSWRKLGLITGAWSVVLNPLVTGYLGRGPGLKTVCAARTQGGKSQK

Row | Structure (SMILES) | EC50 (human GPR40) | EC50 (rat GPR40)
1 | COc1ccc(F)c(-c2ncc(COc3cccc([C@@H](CC(=O)O)C4CC4)c3)nc2-c2cc(C)cc(C)c2)c1 [Cpd 10, (3S)-3-cyclopropyl-3-[3-[[6-(3,5-dimethylphenyl)-5-(2-fluoro-5-methoxy-phenyl)pyrazin-2-yl]methoxy]phenyl]propanoic acid] | 8 nM and 7 nM | 33 nM and 29 nM
2 | COc1ccc(F)c(-c2ncc(COc3cccc([C@@H](CC(=O)O)C4CC4)c3)nc2-c2sccc2C)c1 [Cpd 33, (3S)-3-cyclopropyl-3-[3-[[5-(2-fluoro-5-methoxy-phenyl)-6-(3-methyl-2-thienyl)pyrazin-2-yl]methoxy]phenyl]propanoic acid] | 34 nM and 27 nM | 120 nM and 110 nM and 100 nM and 82 nM
3 | COc1ccc(F)c(-c2ncc(COc3cccc([C@@H](CC(=O)O)C4CC4)c3)nc2OC2CC(C)(C)CC(C)(C)C2)c1 [Cpd 24, (3S)-3-cyclopropyl-3-[3-[[5-(2-fluoro-5-methoxy-phenyl)-6-(3,3,5,5-tetramethylcyclohexoxy)pyrazin-2-yl]methoxy]phenyl]propanoic acid] | 24 nM and 16 nM and 40 nM | 187 nM and 178 nM and 183 nM
4 | COc1cc(-c2ncc(COc3cccc([C@@H](CC(=O)O)C4CC4)c3)nc2C2=CCCC2(C)C)ccn1 [Cpd 31, (3S)-3-cyclopropyl-3-[3-[[6-(5,5-dimethylcyclopenten-1-yl)-5-(2-methoxy-4-pyridyl)pyrazin-2-yl]methoxy]phenyl]propanoic acid] | 32 nM and 26 nM | 102 nM and 66 nM
5 | COc1cc(-c2ncc(COc3cccc([C@@H](CC(=O)O)C4CC4)c3)nc2OC2CCCCC2)c(F)cn1 [Cpd 9, (3S)-3-[3-[[6-(cyclohexoxy)-5-(5-fluoro-2-methoxy-4-pyridyl)pyrazin-2-yl]methoxy]phenyl]-3-cyclopropyl-propanoic acid] | 7 nM | 20 nM and 16 nM
6 | COc1cc(-c2ncc(COc3cccc([C@@H](CC(=O)O)C4CC4)c3)nc2C=C(C)C)c(F)cn1 [Cpd 11, (3S)-3-cyclopropyl-3-[3-[[5-(5-fluoro-2-methoxy-4-pyridyl)-6-(2-methylprop-1-enyl)pyrazin-2-yl]methoxy]phenyl]propanoic acid] | 11 nM and 7 nM | 29 nM and 23 nM
7 | COc1ccc(F)c(-c2ncc(COc3cccc([C@@H](CC(=O)O)C4CC4)c3)nc2-c2cccc(C(C)C)c2)c1 [Cpd 23, (3S)-3-cyclopropyl-3-[3-[[5-(2-fluoro-5-methoxy-phenyl)-6-(3-isopropylphenyl)pyrazin-2-yl]methoxy]phenyl]propanoic acid] | 23 nM and 14 nM | 58 nM and 50 nM
8 | COc1cc(-c2ncc(COc3cccc([C@@H](CC(=O)O)C4CC4)c3)nc2OC2CCCC2)c(F)cn1 [Cpd 16, (3S)-3-[3-[[6-(cyclopentoxy)-5-(5-fluoro-2-methoxy-4-pyridyl)pyrazin-2-yl]methoxy]phenyl]-3-cyclopropyl-propanoic acid] | 11 nM and 10 nM | 38 nM and 36 nM
9 | COc1cc(-c2ncc(COc3cccc([C@@H](CC(=O)O)C4CC4)c3)nc2OCC2CC2)c(F)cn1 [Cpd 48, (3S)-3-cyclopropyl-3-[3-[[6-(cyclopropylmethoxy)-5-(5-fluoro-2-methoxy-4-pyridyl)pyrazin-2-yl]methoxy]phenyl]propanoic acid] | 35 nM and 32 nM | 138 nM and 152 nM
10 | COc1ccc(F)c(-c2ncc(COc3cccc([C@@H](CC(=O)O)C4CC4)c3)nc2N(C)C(C)C)c1 [Cpd 34, (3S)-3-cyclopropyl-3-[3-[[5-(2-fluoro-5-methoxy-phenyl)-6-[isopropyl(methyl)amino]pyrazin-2-yl]methoxy]phenyl]propanoic acid] | 33 nM and 30 nM | 112 nM and 104 nM and 88 nM and 86 nM
11 | COc1cc(-c2ncc(COc3cccc([C@@H](CC(=O)O)C4CC4)c3)nc2OCC(C)(C)C)c(F)cn1 [Cpd 47, (3S)-3-cyclopropyl-3-[3-[[6-(2,2-dimethylpropoxy)-5-(5-fluoro-2-methoxy-4-pyridyl)pyrazin-2-yl]methoxy]phenyl]propanoic acid] | 3 nM | 13 nM and 14 nM
12 | COc1ccc(F)c(-c2ncc(COc3cccc([C@@H](CC(=O)O)C4CC4)c3)nc2C(C)C(F)(F)F)c1 (stereo partly drawn) [Cpd 40, (3S)-3-cyclopropyl-3-[3-[[5-(2-fluoro-5-methoxy-phenyl)-6-(2,2,2-trifluoro-1-methyl-ethyl)pyrazin-2-yl]methoxy]phenyl]propanoic acid] | 64 nM and 52 nM | 253 nM and 249 nM and 236 nM and 227 nM
13 | COc1ccc(F)c(-c2ncc(COc3cccc([C@@H](CC(=O)O)C4CC4)c3)nc2N(C)C)c1 [Cpd 38, (3S)-3-cyclopropyl-3-[3-[[6-(dimethylamino)-5-(2-fluoro-5-methoxy-phenyl)pyrazin-2-yl]methoxy]phenyl]propanoic acid] | 55 nM and 42 nM | 399 nM and 395 nM
14 | COc1ccc(F)c(-c2ncc(COc3cccc([C@@H](CC(=O)O)C4CC4)c3)nc2OC(C)C)c1 [Cpd 29, (3S)-3-cyclopropyl-3-[3-[[5-(2-fluoro-5-methoxy-phenyl)-6-isopropoxy-pyrazin-2-yl]methoxy]phenyl]propanoic acid] | 39 nM and 30 nM and 21 nM and 26 nM and 23 nM | 73 nM (2×) and 56 nM and 98 nM and 62 nM
15 | COc1ccc(F)c(-c2ncc(COc3cccc([C@@H](CC(=O)O)C4CC4)c3)nc2OC2CCCCC2)c1 [Cpd 7, (3S)-3-[3-[[6-(cyclohexoxy)-5-(2-fluoro-5-methoxy-phenyl)pyrazin-2-yl]methoxy]phenyl]-3-cyclopropyl-propanoic acid] | 7 nM and 6 nM | 29 nM and 27 nM
16 | COc1ccc(F)c(-c2ncc(COc3cccc([C@@H](CC(=O)O)C4CC4)c3)nc2C2CC2)c1 [Cpd 39, (3S)-3-cyclopropyl-3-[3-[[6-cyclopropyl-5-(2-fluoro-5-methoxy-phenyl)pyrazin-2-yl]methoxy]phenyl]propanoic acid] | 130 nM and 98 nM and 64 nM and 50 nM | 395 nM and 358 nM and 247 nM and 208 nM
17 | COc1cccc(-c2ncc(COc3cccc([C@@H](CC(=O)O)C4CC4)c3)nc2C2=CCCC2(C)C)c1 [Cpd 35, (3S)-3-cyclopropyl-3-[3-[[6-(5,5-dimethylcyclopenten-1-yl)-5-(3-methoxyphenyl)pyrazin-2-yl]methoxy]phenyl]propanoic acid] | 50 nM and 25 nM | 356 nM and 242 nM
18 | COc1cc(-c2ncc(COc3cccc([C@@H](CC(=O)O)C4CC4)c3)nc2C2=CCCC2(C)C)c(F)cn1 [Cpd 15, (3S)-3-cyclopropyl-3-[3-[[6-(5,5-dimethylcyclopenten-1-yl)-5-(5-fluoro-2-methoxy-4-pyridyl)pyrazin-2-yl]methoxy]phenyl]propanoic acid] | 15 nM and 7 nM | 21 nM and 15 nM
19 | COc1ccc(F)c(-c2ncc(COc3cccc([C@@H](CC(=O)O)C4CC4)c3)nc2C(C)C)c1 [Cpd 37, (3S)-3-cyclopropyl-3-[3-[[5-(2-fluoro-5-methoxy-phenyl)-6-isopropyl-pyrazin-2-yl]methoxy]phenyl]propanoic acid] | 45 nM and 44 nM | 141 nM and 109 nM
20 | COc1ccc(F)c(-c2ncc(COc3cccc([C@@H](CC(=O)O)C4CC4)c3)nc2OC2CC(C)(C)OC(C)(C)C2)c1 [Cpd 26, (3S)-3-cyclopropyl-3-[3-[[5-(2-fluoro-5-methoxy-phenyl)-6-(2,2,6,6-tetramethyltetrahydropyran-4-yl)oxy-pyrazin-2-yl]methoxy]phenyl]propanoic acid] | 21 nM | 111 nM and 108 nM
21 | COc1cccc(-c2ncc(COc3cccc([C@@H](CC(=O)O)C4CC4)c3)nc2C2=CCCC2(C)C)c1F [Cpd 46, (3S)-3-cyclopropyl-3-[3-[[6-(5,5-dimethylcyclopenten-1-yl)-5-(2-fluoro-3-methoxy-phenyl)pyrazin-2-yl]methoxy]phenyl]propanoic acid] | 130 nM and 127 nM | 637 nM and 788 nM
22 | COc1ccc(F)c(-c2ncc(COc3cccc([C@@H](CC(=O)O)C4CC4)c3)nc2OCC(C)C)c1 [Cpd 14, (3S)-3-cyclopropyl-3-[3-[[5-(2-fluoro-5-methoxy-phenyl)-6-isobutoxy-pyrazin-2-yl]methoxy]phenyl]propanoic acid] | 10 nM (2×) and 9 nM | 16 nM and 32 nM and 31 nM and 21 nM and 18 nM
23 | COc1ccc(F)c(-c2ncc(COc3cccc([C@@H](CC(=O)O)C4CC4)c3)nc2OC2CCC2)c1 [Cpd 19, (3S)-3-[3-[[6-(cyclobutoxy)-5-(2-fluoro-5-methoxy-phenyl)pyrazin-2-yl]methoxy]phenyl]-3-cyclopropyl-propanoic acid] | 14 nM and 11 nM | 70 nM and 49 nM
24 | COc1cc(-c2ncc(COc3cccc([C@@H](CC(=O)O)C4CC4)c3)nc2-c2ccc(C)s2)c(F)cn1 [Cpd 28, (3S)-3-cyclopropyl-3-[3-[[5-(5-fluoro-2-methoxy-4-pyridyl)-6-(5-methyl-2-thienyl)pyrazin-2-yl]methoxy]phenyl]propanoic acid] | 26 nM and 23 nM | 57 nM and 54 nM
25 | COc1cc(-c2ncc(COc3cccc([C@@H](CC(=O)O)C4CC4)c3)nc2OCC(C)C)c(F)cn1 [Cpd 12, (3S)-3-cyclopropyl-3-[3-[[5-(5-fluoro-2-methoxy-4-pyridyl)-6-isobutoxy-pyrazin-2-yl]methoxy]phenyl]propanoic acid] | 11 nM and 8 nM | 24 nM and 21 nM
26 | COc1ccc(F)c(-c2ncc(COc3cccc([C@@H](CC(=O)O)C4CC4)c3)nc2OCC(C)(C)C)c1 [Cpd 4, (3S)-3-cyclopropyl-3-[3-[[6-(2,2-dimethylpropoxy)-5-(2-fluoro-5-methoxy-phenyl)pyrazin-2-yl]methoxy]phenyl]propanoic acid] | 9 nM and 3 nM and 2 nM | 13 nM (2×) and 9 nM
